This note sets out measurements from PubChem BioAssay (NCI).

Structures are written as SMILES.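 Five concentrations, 48 hours, 96-well plates. TGI: total growth inhibition.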 Some results are limits rather than exact numbers.

What all share (assay): growth of human tumour cells (NCI), 48 h
Test [1] has as its system SW-620 colon.
Test [2] relates to T-47D breast.
The test system of test [3] is SNB-19 CNS.
Test [4] concerns KM12 colon.
Test [5] deals with SK-MEL-5 melanoma.
The subject of test [6] is UACC-257 melanoma.
The test system of test [7] is ACHN renal.
Test [8] relates to NCI-H23 lung.
In test [9] the test system is MOLT-4 leukemia.
For test [10], the system named is SNB-75 CNS.

For `COP(=O)(OC)C12CCOCCN1c1ccccc1C2=O` (stereo not given), the TGI in [1], in test [2], in [3], in [4], in test [5] and in [6] was greater than 100 µM each time. For the same molecule, the TGI in [7], in test [8], in [9] and in [10] was greater than 100 µM in each case.

For `O=C1CC(Sc2nc3ccc(I)cc3c(=O)n2Cc2ccccc2)C(=O)NN1` (stereo not given), the TGI in [1] amounted to 35.2 µM; in test [2], 34.3 µM; in [3], 39.1 µM; in test [4], 38.8 µM; in test [5], 29.7 µM; in test [6], 35.3 µM. The TGI is 30.2 µM in [7], 30.1 µM in [8], 42.6 µM in test [9] and 24.5 µM in test [10].

For the molecule `CCOC(=O)C(C)c1nc2c(Cl)c3ncccc3cc2[nH]c1=O` (stereo not given), the TGI in test [1], in test [2], in test [3], in test [4], in test [5] and in test [6] was greater than 100 µM throughout. The TGI in test [7], in test [8], in test [9] and in [10] was greater than 100 µM each time.

Consider `COC(=O)[C@H](Cc1ccccc1)NC(=O)c1ccc(CNC(=O)/C=C/c2cccc(Oc3ccccc3)c2)cc1`, for which the TGI in [1] is greater than 100 µM; in test [2], greater than 100 µM; in [3] it was greater than 100 µM; in [4], greater than 100 µM; in test [5], 36.9 µM; in [6], 21.8 µM. For the same molecule, the TGI is 40.2 µM in test [7], greater than 100 µM in test [8], greater than 100 µM in test [9] and greater than 100 µM in [10].

Consider `Cc1cc2nc(-c3cc(C(C)(C)C)c(O)c(C(C)(C)C)c3)[nH]c2cc1C`, for which the TGI in [1] was 13.5 µM; in test [2] it was greater than 100 µM; in test [3], greater than 100 µM; in [4], greater than 28.8 µM; in test [5], greater than 100 µM; in [6] it was greater than 100 µM. In addition, the TGI is greater than 24.6 µM in test [7], greater than 100 µM in test [8], 27.1 µM in [9] and greater than 100 µM in [10].

`COc1ccc(N=C2C(=S)N(c3ccc(OC)cc3)/C(=N/S(=O)(=O)c3ccccc3)N2c2ccccc2)cc1`: the TGI was 16.3 µM in test [1]; 7.6 µM in test [2]; greater than 61 µM in [3]; 34.6 µM in test [4]; 11.1 µM in test [5]; 26.6 µM in [6]. For the same molecule, the TGI in test [7] was 21.7 µM; in test [8] it was 29 µM; in [9], greater than 100 µM; in [10], 35.1 µM.

On to `COc1cc(CC(C)N)ccc1O` (stereo not given), for which the TGI in test [1], in test [2], in [3], in test [4], in test [5] and in [6] was greater than 100 µM throughout. The TGI in [7], in [8], in test [9] and in test [10] was greater than 100 µM each time.

For the molecule `CCCCC/C(C=O)=C\c1ccccc1`, the TGI in test [1], in test [2], in [3], in test [4], in [5] and in test [6] was greater than 100 µM in each case. Also, the TGI in [7], in test [8], in test [9] and in test [10] was greater than 100 µM throughout.

For the molecule `NS(=O)(=O)c1ccc(NC(NC(=O)C(C(F)(F)F)C(F)(F)F)(C(F)(F)F)C(F)(F)F)cc1`, the TGI in test [1], in test [2], in [3], in test [4], in test [5] and in test [6] was greater than 100 µM in each case. Besides, the TGI in test [7], in test [8], in test [9] and in test [10] was greater than 100 µM in each case.

Regarding `COc1ccc(N=NC(=Nc2ccc(F)cc2)c2ccc(N(CCC#N)CCC#N)cc2)cc1`, the TGI in [1] was greater than 100 µM; in test [2] it was greater than 100 µM; in test [3] it was greater than 100 µM; in test [4] it was 44.9 µM; in [5], greater than 100 µM; in [6], 70.4 µM. The TGI was greater than 100 µM in test [7], 65.6 µM in [8], greater than 100 µM in test [9] and 84.1 µM in test [10].

Consider `COC(=O)C1(Cc2ccc3c(c2)CCC3)Cc2cc3c(cc2C1)CCC3`, for which the TGI in test [1] was greater than 100 µM; in test [2], 60.7 µM; in [3], greater than 100 µM; in test [4], greater than 100 µM; in test [5], greater than 100 µM; in test [6], 62.2 µM. Moreover, the TGI in [7], in test [8], in [9] and in test [10] was greater than 100 µM throughout.

As for `CCOC(=O)C1CN(C2CC2)CCC1=O` (stereo not given), the TGI in test [1], in test [2], in test [3], in [4], in test [5] and in test [6] was greater than 100 µM in each case. The TGI in [7], in test [8], in [9] and in test [10] was greater than 100 µM each time.

In the case of `COc1cc(C=C2C(=O)NC(=S)NC2=O)cc(OC)c1OC`, the TGI in [1], in test [2], in [3], in [4], in test [5] and in test [6] was greater than 100 µM each time. The TGI in test [7], in test [8], in test [9] and in test [10] was greater than 100 µM in each case.

In the case of `COc1ccc2c(c1)CCN=C2c1ccccc1CCCCl`, the TGI in test [1] was greater than 100 µM; in [2], greater than 100 µM; in test [3], 40.1 µM; in test [4] it was greater than 100 µM; in [5], 13.3 µM; in [6], greater than 100 µM. For the same molecule, the TGI in [7] was 64.9 µM; in test [8] it was 39.8 µM; in [9] it was 42.4 µM; in [10], greater than 100 µM.
